Reference: ChEMBL document CHEMBL4706660, “Structure-Activity Relationship and Biological Investigation of SR18292 (16), a Suppressor of Glucagon-Induced Glucose Production” (J Med Chem, 2021)
The source made the active and inactive calls. The rule behind the calls is not given here.

How the values were obtained:
[1] = Inhibition of glucagon-induced glucose secretion in C57BL/6 mouse primary hepatocytes at 1 uM; assay type: functional; conditions: C57BL/6, Hepatocyte
[2] = Inhibition of NE-induced lipolysis in adipocytes (unknown origin) assessed as reduction in glycerol release at 1 uM pre-incubated for 30 mins before NE stimulation for 90 mins by glycerol reagent based assay relative to control; assay type: functional, Adipocyte; conditions: 2 h
Adipocyte = assay: Inhibition of NE-induced lipolysis in adipocytes (unknown origin) assessed as reduction in glycerol release at 1 to 10000 nM pre-incubated for 30 mins before NE stimulation for 90 mins by glycerol reagent based assay relative to control; assay type: functional, cell-based; conditions: dose 1-10000 nM, time 120.0 min
Mus musculus [3] = assay: Suppression of fasting blood glucose in overnight fasted ob/ob mouse 25 mg/kg, ip dosed 3 times and measured 3 hrs after last dose; assay type: functional, organism-based
Mus musculus [4] = assay: In-vivo antagonist activity at beta-adrenergic receptor in fasted ob/ob mouse assessed as increase in accumulation of liver glycogen at 25 mg/kg; assay type: functional, organism-based
Mus musculus [5] = assay: In-vivo antagonist activity at beta-adrenergic receptor in fasted ob/ob mouse assessed as inhibition of hormone-sensitive lipase phosphorylation in brown adipose tissue at 25 mg/kg
[6] = target: Beta-2 adrenergic receptor (Homo sapiens, UniProt P07550); assay: Binding affinity to beta2 adrenoceptor (unknown origin)
Chain of Beta-2 adrenergic receptor (P07550 whole entry): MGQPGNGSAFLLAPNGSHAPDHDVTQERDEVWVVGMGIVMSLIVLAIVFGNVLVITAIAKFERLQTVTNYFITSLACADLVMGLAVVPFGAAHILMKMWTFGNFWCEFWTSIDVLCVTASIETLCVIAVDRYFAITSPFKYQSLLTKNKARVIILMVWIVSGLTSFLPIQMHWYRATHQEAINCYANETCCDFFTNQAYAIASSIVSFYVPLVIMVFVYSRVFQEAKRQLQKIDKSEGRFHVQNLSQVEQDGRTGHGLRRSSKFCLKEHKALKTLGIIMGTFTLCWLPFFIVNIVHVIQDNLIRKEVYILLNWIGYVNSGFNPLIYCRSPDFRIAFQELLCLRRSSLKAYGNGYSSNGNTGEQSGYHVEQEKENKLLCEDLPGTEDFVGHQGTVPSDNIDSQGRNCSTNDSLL

[7] = target: T1, 5-hydroxytryptamine receptor 1A (Homo sapiens, UniProt P08908); assay: Binding affinity to 5HT1A receptor (unknown origin)
T1 sequence (P08908 whole entry): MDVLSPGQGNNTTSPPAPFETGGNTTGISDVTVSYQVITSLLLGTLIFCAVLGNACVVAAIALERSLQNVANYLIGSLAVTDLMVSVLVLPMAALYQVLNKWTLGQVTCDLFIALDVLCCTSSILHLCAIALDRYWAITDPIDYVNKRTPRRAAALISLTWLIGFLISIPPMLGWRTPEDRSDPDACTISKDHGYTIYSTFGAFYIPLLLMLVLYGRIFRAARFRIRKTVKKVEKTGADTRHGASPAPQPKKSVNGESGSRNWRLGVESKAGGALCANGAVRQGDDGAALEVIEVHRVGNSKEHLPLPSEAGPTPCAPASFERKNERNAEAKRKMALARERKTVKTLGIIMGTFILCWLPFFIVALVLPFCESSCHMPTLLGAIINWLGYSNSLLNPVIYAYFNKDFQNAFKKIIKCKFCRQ

Mus musculus [8] = assay: In-vivo antagonist activity at beta-adrenergic receptor in fasted and HFD fed mouse assessed as inhibition of hormone-sensitive lipase phosphorylation in epididymal white adipose tissue at 50 mg/kg; assay type: functional, organism-based
Mus musculus [9] = assay: In-vivo antagonist activity at beta-adrenergic receptor in fasted and HFD fed mouse assessed as increase in accumulation of liver glycogen at 50 mg/kg; assay type: functional, organism-based

Row | Compound | inhibition at 1 µM [1] [%] | inhibition ([2]; read-out: INH) [%] | further results
1 | CC(C)(C)N(CC(O)COc1cccc2[nH]ccc12)CC1CCCC1 (stereo unspecified) | 48.5 | 51.3 | 
2 | COC(COc1cccc2c1ccn2C)CN(Cc1ccc(C)cc1)C(C)(C)C (stereo unspecified) | 56.8 | 3.22 | 
3 | CC(C)NCC(O)COc1cccc2ccccc12 (stereo unspecified) [PROPRANOLOL] |  |  | inhibition [2]: 92.4%
4 | COC(COc1cccc2[nH]ccc12)CN(CC1CCCC1)C(C)(C)C (stereo unspecified) | 66.4 | 1 | 
5 | Cc1ccc(CN(CC(O)COc2ccc3[nH]ccc3c2)C(C)(C)C)cc1 (stereo unspecified) | 50.7 | 48.5 | 
6 | Cc1ccc(CN(CC(O)COc2cccc3[nH]ccc23)C2CC2)cc1 (stereo unspecified) | 37.8 | 11.6 | 
7 | COc1ccc(CN(CC(O)COc2cccc3[nH]ccc23)C(C)(C)C)cc1 (stereo unspecified) | 30.1 | 58.3 | 
8 | Cc1ccc(CN(CC(O)CNc2ccc3[nH]ccc3c2)C(C)(C)C)cc1 (stereo unspecified) | 28.2 | 2.24 | 
9 | Cc1ccc(CN(CC(O)COc2cccc3c2ccn3C)C(C)(C)C)cc1 (stereo unspecified) | 47.7 | 36.7 | 
10 | Cc1ccccc1CN(CC(O)COc1cccc2[nH]ccc12)C(C)(C)C (stereo unspecified) | 46 | 35.6 | 
11 | Cc1ccc(CN(CC(O)COc2cccc3ccccc23)C(C)(C)C)cc1 (stereo unspecified) | -2.73 | 10.4 | 
12 | CC(C)(C)c1ccc(CN(CC(O)COc2cccc3[nH]ccc23)C(C)(C)C)cc1 (stereo unspecified) | 47.3 | 11.3 | inhibition (Adipocyte): inactive; Activity (Mus musculus [3]): Active; Activity (Mus musculus [4]): inactive; Activity (Mus musculus [5]): inactive
13 | CC(=O)Nc1cccc(OCC(O)CN(Cc2ccc(C)cc2)C(C)(C)C)c1 (stereo unspecified) | 35.9 | 12.3 | 
14 | CC(C)(C)N(Cc1ccc(F)cc1)CC(O)COc1cccc2[nH]ccc12 (stereo unspecified) | 52.2 | 55.3 | 
15 | CN(C)c1ccc(CN(CC(O)COc2cccc3[nH]ccc23)C(C)(C)C)cc1 (stereo unspecified) | 35.3 | 65.2 | 
16 | COC(COc1cccc2[nH]ccc12)CN(Cc1ccccc1C)C(C)(C)C (stereo unspecified) | 22.7 | 14.6 | 
17 | Cc1ccc(CN(CC(O)COc2cccc3[nH]ccc23)C(C)(C)C)cc1 (stereo unspecified) | 57.7 | 25.8 | Ki [6]: 1300 nM; Ki [7]: 2100 nM; Activity (Mus musculus [8]): inactive; Activity (Mus musculus [9]): inactive; Activity (Mus musculus [3]): Active; Activity (Mus musculus [4]): inactive; Activity (Mus musculus [5]): inactive
18 | Cc1ccc(CN(CC(O)CNc2cccc3cc[nH]c23)C(C)(C)C)cc1 (stereo unspecified) | 35.1 | 13.2 | 
19 | COC(COc1cccc2[nH]ccc12)CN(Cc1ccc(C)cc1)C(C)(C)C (stereo unspecified) | 135 | -8.5 | 
20 | Cc1ccc(CN(CCCOc2cccc3[nH]ccc23)C(C)(C)C)cc1 | 28.3 | 9.91 | 
21 | CC(C)(C)NCC(O)COc1cccc2[nH]ccc12 (stereo unspecified) | 53 | 73.2 | 
22 | Cc1ccc(CN(CC(O)COc2cccc(C)c2)C(C)(C)C)cc1 (stereo unspecified) | 31.5 | 13.1 | 
23 | Cc1cccc(CN(CC(O)COc2cccc3[nH]ccc23)C(C)(C)C)c1 (stereo unspecified) | 62.6 | 40.4 | 
24 | Cc1ccc(CN(CC(O)COc2cccc3[nH]ccc23)C(C)C)cc1 (stereo unspecified) | 59.5 | 51.6 | 
25 | Cc1ccc(CNCC(O)COc2cccc3[nH]ccc23)cc1 (stereo unspecified) | 34.5 | 40.6 | 
26 | Cc1ccc(CN(CC(O)COc2ccncc2)C(C)(C)C)cc1 (stereo unspecified) | 41.4 | 31.5 | 
27 | Cc1ccc(CN(CC(O)COc2ccccc2)C(C)(C)C)cc1 (stereo unspecified) | 32.3 | 21.7 | 
28 | CC(C)(C)N(Cc1ccc(C#N)cc1)CC(O)COc1cccc2[nH]ccc12 (stereo unspecified) | 49.3 | 53.7 | 
